Values of other authors in patent US20210145844A1, “COMBINATION THERAPY FOR NICOTINE ADDICTION” (Amygdala Neurosciences, Inc., priority 2018, published 2021).
pIC50: −log10 of the molar value.

Key:
hMAO-A = target: T1, hMAO-A (Homo sapiens, UniProt P21397); settings: read-out: IC50 hMAO-A
T1 sequence (P21397 1-527): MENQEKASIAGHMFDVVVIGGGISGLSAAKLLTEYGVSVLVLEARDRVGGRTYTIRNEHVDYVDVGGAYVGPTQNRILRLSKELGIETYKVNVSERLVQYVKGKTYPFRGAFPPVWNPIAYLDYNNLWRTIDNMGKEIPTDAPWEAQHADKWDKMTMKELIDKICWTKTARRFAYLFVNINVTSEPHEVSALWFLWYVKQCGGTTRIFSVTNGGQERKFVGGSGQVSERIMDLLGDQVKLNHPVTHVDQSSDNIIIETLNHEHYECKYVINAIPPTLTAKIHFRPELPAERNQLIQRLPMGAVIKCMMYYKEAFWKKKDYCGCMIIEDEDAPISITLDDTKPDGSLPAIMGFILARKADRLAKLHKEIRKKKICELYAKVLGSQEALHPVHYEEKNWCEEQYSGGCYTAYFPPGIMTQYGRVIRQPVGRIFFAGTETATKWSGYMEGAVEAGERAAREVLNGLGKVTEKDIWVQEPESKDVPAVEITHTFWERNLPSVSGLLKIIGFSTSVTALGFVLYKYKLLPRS

hMAO-B = target: T2, hMAO-B (Homo sapiens, UniProt P27338); settings: read-out: IC50 hMAO-B
T2 sequence (P27338 1-520): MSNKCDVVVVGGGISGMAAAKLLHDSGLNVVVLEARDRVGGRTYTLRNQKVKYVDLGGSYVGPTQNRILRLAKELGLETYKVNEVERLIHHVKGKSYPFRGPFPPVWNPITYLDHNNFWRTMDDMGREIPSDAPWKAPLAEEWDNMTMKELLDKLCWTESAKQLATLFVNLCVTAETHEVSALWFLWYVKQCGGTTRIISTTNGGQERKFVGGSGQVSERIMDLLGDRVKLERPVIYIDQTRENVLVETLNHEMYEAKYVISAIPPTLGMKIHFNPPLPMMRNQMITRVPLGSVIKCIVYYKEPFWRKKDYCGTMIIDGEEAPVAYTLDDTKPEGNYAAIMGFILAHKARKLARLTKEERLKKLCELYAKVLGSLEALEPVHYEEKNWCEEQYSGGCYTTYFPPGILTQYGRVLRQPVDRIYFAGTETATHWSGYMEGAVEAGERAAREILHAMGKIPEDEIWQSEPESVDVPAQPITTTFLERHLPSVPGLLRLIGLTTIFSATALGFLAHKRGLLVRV

[1] = in vivo
human ALDH-2 enzyme = target: T3, human ALDH-2 enzyme (Homo sapiens, UniProt P05091); settings: read-out: IC50 ALDH-2
T3 sequence (P05091 18-517): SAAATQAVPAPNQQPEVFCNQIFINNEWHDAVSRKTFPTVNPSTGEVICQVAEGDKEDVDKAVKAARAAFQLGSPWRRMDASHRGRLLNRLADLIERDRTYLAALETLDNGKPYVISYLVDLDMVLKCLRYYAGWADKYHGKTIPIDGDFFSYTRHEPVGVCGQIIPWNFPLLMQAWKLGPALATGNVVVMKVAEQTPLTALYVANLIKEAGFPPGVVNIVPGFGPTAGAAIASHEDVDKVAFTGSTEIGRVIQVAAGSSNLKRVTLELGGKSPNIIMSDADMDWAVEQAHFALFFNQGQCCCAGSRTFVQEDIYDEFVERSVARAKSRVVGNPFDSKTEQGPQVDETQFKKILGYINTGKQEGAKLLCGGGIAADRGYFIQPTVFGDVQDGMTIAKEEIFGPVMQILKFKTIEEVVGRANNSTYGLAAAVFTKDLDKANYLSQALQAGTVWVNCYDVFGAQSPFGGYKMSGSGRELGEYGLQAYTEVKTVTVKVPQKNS

**Q.** With `O=C(NCc1ccc(-c2cc[nH]c(=O)c2)cc1)c1c(F)cccc1Cl` [(12), 2-chloro-6-fluoro-N-(4-(2-oxo-1,2-dihydropyridin-4-yl)benzyl)benzamide] as the compound, how does the pIC50 (hMAO-A) read?
**A.** < 3.89

**Q.** And the pIC50 (hMAO-B)?
**A.** < 3.89

**Q.** With `O=C(NCc1ccc(-c2cc[nH]c(=O)c2)cc1)c1c(Cl)cccc1Cl` [Compound (1), 2,6-dichloro-N-[4-(2-oxo-1,2-dihydro-pyridin-4-yl)-benzyl]-benzamide] as the compound, how does the pIC50 (hMAO-A) read?
**A.** < 3.89

**Q.** And the “intake of cocaine and alcohol” value [1]?
**A.** reduce intake of cocaine and alcohol

**Q.** And the self-administration of nicotine (rats)?
**A.** suppress self-administration of nicotine in rats

**Q.** And the pIC50 (hMAO-B)?
**A.** < 3.89

**Q.** With `O=C(NCc1ccc(-c2cc[nH]c(=O)c2)cc1)c1c(F)cccc1F` [(11), 2,6-difluoro-N-(4-(2-oxo-1,2-dihydropyridin-4-yl)benzyl)benzamide] as the compound, how does the pIC50 (hMAO-A) read?
**A.** < 3.89

**Q.** What about the pIC50 (hMAO-B) of the same compound?
**A.** < 3.89

**Q.** With `Cc1cccc(Cl)c1C(=O)NCc1ccc(-c2cc[nH]c(=O)c2)cc1` [(5), 2-chloro-6-methyl-N-(4-(2-oxo-1,2-dihydropyridin-4-yl)benzyl)benzamide] as the compound, how does the pIC50 (hMAO-A) read?
**A.** < 3.89

**Q.** What about the pIC50 (hMAO-B) of the same compound?
**A.** < 3.89

**Q.** With `O=C(NCc1ccc(-c2cc[nH]c(=O)c2)cc1F)c1c(Cl)cccc1Cl` [(13), 2,6-dichloro-N-(2-fluoro-4-(2-oxo-1,2-dihydropyridin-4-yl)benzyl)benzamide] as the compound, how does the pIC50 (hMAO-A) read?
**A.** < 3.89

**Q.** And the pIC50 (hMAO-B)?
**A.** < 3.89

**Q.** With `O=C(NCc1ccc(-c2cc[nH]c(=O)c2)cc1)c1c(F)ccc(F)c1Cl` [(8), 2-chloro-3,6-difluoro-N-(4-(2-oxo-1,2-dihydropyridin-4-yl)benzyl)benzamide] as the compound, how does the pIC50 (hMAO-A) read?
**A.** < 3.89

**Q.** And the pIC50 (hMAO-B)?
**A.** < 3.89

**Q.** With `Cc1cccc(C)c1C(=O)NCc1ccc(-c2cc[nH]c(=O)c2)cc1` [(6), 2,6-dimethyl-N-(4-(2-oxo-1,2-dihydropyridin-4-yl)benzyl)benzamide] as the compound, how does the pIC50 (hMAO-A) read?
**A.** < 3.89

**Q.** And the pIC50 (hMAO-B)?
**A.** < 3.89

**Q.** With `COCCOc1cc(Cl)c(C(=O)NCc2ccc(-c3cc[nH]c(=O)c3)cc2)c(Cl)c1` [(3), 2,6-dichloro-4-(2-methoxyethoxy)-N-(4-(2-oxo-1,2-dihydropyridin-4-yl)benzyl)benzamide] as the compound, how does the pIC50 (hMAO-A) read?
**A.** < 3.89

**Q.** And the pIC50 (hMAO-B)?
**A.** < 3.89

**Q.** With `O=C(O)C(O)C(O)C(=O)O.c1cnc2cc3c(cc2n1)[C@@H]1CNC[C@H]3C1` [varenicline, 7,8,9,10-tetrahydro-6,10-methano-6H-pyrazino[2,3-h][3]benzazepine] as the compound, how does the “varenicline discontinuation due to gastrointestinal side-effects” value (patients; estimated) read?
**A.** 2%-8%

**Q.** What about the “incidence of nausea at larger doses” value (patients; larger doses, placebo 10%) of the same compound?
**A.** 30%

**Q.** What about the “mild nausea, share of patients” value (patients; most common side effect, smoking cessation use) of the same compound?
**A.** ~30 % of patients

**Q.** What about the “incidence of nausea at smaller doses” value (patients; smaller doses, placebo 11%) of the same compound?
**A.** 16%

**Q.** With `O=C(NCc1ccc(-c2cc[nH]c(=O)c2)cc1)c1cccc(F)c1Cl` [(4), 2-chloro-3-fluoro-N-(4-(2-oxo-1,2-dihydropyridin-4-yl)benzyl)benzamide] as the compound, how does the pIC50 (hMAO-A) read?
**A.** < 3.89

**Q.** And the pIC50 (hMAO-B)?
**A.** < 3.89

**Q.** With `O=C(NCc1ccc(-c2ccn(COP(=O)(O)O)c(=O)c2)cc1)c1c(Cl)cccc1Cl` [Compound (2), phosphoric acid mono-(4-{4-[(2,6-dichloro-benzoylamino)-methyl]-phenyl}-2-oxo-2H-pyridin-1-ylmethyl) ester] as the compound, how does the pIC50 (human ALDH-2 enzyme) read?
**A.** < 5.00

**Q.** And the pIC50 (hMAO-A)?
**A.** < 3.89

**Q.** And the “in vivo metabolism of prodrug” value?
**A.** undergoes in vivo cleavage of the phosphoric acid group to yield compound (1)

**Q.** And the pIC50 (hMAO-B)?
**A.** < 3.89

**Q.** With `Cc1cc(-c2ccc(CNC(=O)c3c(Cl)cccc3Cl)cc2)cc(=O)[nH]1` [(7), 2,6-dichloro-N-[4-(6-methyl-2-oxo-1,2-dihydro-pyridin-4-yl)-benzyl]-benzamide] as the compound, how does the pIC50 (hMAO-A) read?
**A.** < 3.89

**Q.** And the pIC50 (hMAO-B)?
**A.** < 3.89

**Q.** Which results are given for `O=C(NCc1ccc(-c2cc(=O)[nH]cc2F)cc1)c1c(Cl)cccc1Cl` [(14), 2,6-dichloro-N-(4-(5-fluoro-2-oxo-1,2-dihydropyridin-4-yl)benzyl)benzamide]?
**A.** pIC50 (hMAO-A): < 3.89; pIC50 (hMAO-B): < 3.89

**Q.** With `Cc1cc(CNC(=O)c2c(Cl)cccc2Cl)ccc1-c1cc[nH]c(=O)c1` [(9), 2,6-dichloro-N-(3-methyl-4-(2-oxo-1,2-dihydropyridin-4-yl)benzyl)benzamide] as the compound, how does the pIC50 (hMAO-A) read?
**A.** < 3.89

**Q.** And the pIC50 (hMAO-B)?
**A.** < 3.89

**Q.** With `Cn1ccc(-c2ccc(CNC(=O)c3c(Cl)cccc3Cl)cc2)cc1=O` [(10), 2,6-dichloro-N-(4-(1-methyl-2-oxo-1,2-dihydropyridin-4-yl)benzyl)benzamide] as the compound, how does the pIC50 (hMAO-A) read?
**A.** < 3.89

**Q.** And the pIC50 (hMAO-B)?
**A.** < 3.89
